Experimental data published in patent publication US20190241943A1, “RAPID PHENOTYPING AND IDENTIFICATION OF MICROBES FROM A COMPLEX MICROBIAL COMMUNITY” (Duke University, priority 2018, published 2019).

Columns and labels:
gut bacteria = test: Xenobiotic growth screen of gut bacteria for beta-glucuronidases in droplets; type: cell-based, human gut bacteria; conditions: defined media, glucose positive control, water negative control (FIG. 6)
Excerpt: Thus, in certain aspects of this disclosure, the methods of the invention can be used to identify or screen bacteria from the gut that can utilize, and thus inactivate, specific xenobiotic compounds. In certain embodiments of this aspect, the methods of the invention can be used to screen gut bacteria for beta-glucuronidases, which are present in bacteria that can inactivate certain man-made therapeutics. […] (FIG. 6). […] Thus, in some embodiments, the present disclosure provides for identification of bacterial taxa that contain putative beta-glucuronidases. Using the method disclosed herein, bacteria are isolated by encapsulation in droplets of defined media with or without a specific xenobiotic. DNA is sampled from the encapsulated droplets at one or more set time points during incubation, and absolute growth is then computed as previously disclosed herein. […] To determine gut bacterial strain response to xenobiotics, gut bacteria were screened for beta-glucuronidases, which are present in bacteria that can inactivate certain man-made therapeutics. […] (FIG. 6). […] Thus, the assay identified bacterial taxa that contain putative beta-glucuronidases. Glucose and water are positive and negative controls, respectively. (FIG. 6).

[1] = test system: B. thetaiotamicron (ATCC strain 29148); test: Droplet monoculture growth on different carbon sources in defined medium (MicDrop); type: cell-based, Bacteroides thetaiotaomicron; conditions: for growth of the isolate in droplets compared to control defined medium without carbon source: B. theta isolate, defined medium with a single carbon source, endpoint DNA quantity (FIG. 4); for growth in droplets on carbohydrate (growth / no growth): B. thetaiotaomicron ATCC 29148 in microfluidic droplets, consistent with 96-well plates (FIG. 4)
Method: By using a defined media, a function of individual bacteria (in this case growth on a substrate of interest) can be determined. Bacteria were isolated from a fecal community of a healthy donor and cultured in defined medium. To identify carbon sources on which an individual isolated bacterium can grow, carbon sources of varying complexity were added individually to the defined media. Growth was measured at the endpoint, and the DNA was extracted, sequenced and quantified by qPCR as provided in Example 2. In this assay, the endpoint growth of an individual bacteria cultured in a defined medium with the addition of one carbon source was compared to the end point growth measurement of the same bacteria in the defined medium with only the addition of water. (FIG. 4). This comparison enables assessing the ability of an individual microbe to use a single carbon source for growth. As an example in FIG. 4, an isolate of the bacterial strain B. thetaiotamicron (ATCC® strain 29148) was cultured in droplets with defined medium containing the carbon source Pullalan, Levan, Lamanarin or no carbon source (control), and growth was compared. (FIG. 4). […] (FIG. 4). […] (FIG. 5).
(A) Microbial communities isolated from human stool samples were examined for carbon consumption in a custom microfluidic screen. Cells were restarted from frozen stock in mGAM (as above) and then minimal medium containing glucose and galactose (SIGMA®) as the sole carbon sources. Following determination of the loading concentration, the cell culture stocks were washed twice by centrifugation and resuspended in 2× minimal medium. Cells were filtered using a 50 μm filter (CELLTRICS®, SYSMEX®) to remove multi-cell clumps. The filtered cells suspension was then added to each sample formulation at the target concentration. Each sample was a 50:50 mixture of 1% carbon solution and 2× minimal medium. To prevent chip fouling, the oil inlet was equipped with 10 μm inline filters (P-276, IDEX®). Droplet generation in the anaerobic chamber was monitored using a bright field microscope (44347, CELESTRON®). Droplet cultures were stored 5 mL polypropylene tubes (352063, FALCON®) with the caps closed in an anaerobic incubator at 37° C. Following the second day of incubation, cultures were moved to a −20° C. freezer for storage prior to DNA extraction. Pre-processing of the droplet data designated samples with qPCR values below the mean no-carbon control as zero growth. Then, relative abundance data was converted to absolute abundance by multiplying each sample by the corresponding qPCR value. The median was then calculated across three replicate samples and matched no-carbon controls were subtracted from each sample. Finally, a growth threshold of 88% of maximum growth was applied, as determined from validation analysis (FIG. 15, Validation of prebiotic utilization assays)
To test whether the MicDrop method could be used to assay bacterial prebiotic metabolism (FIG. 12A), a previously characterized type strain Bacteroides thetaiotaomicron ATCC 29148 was loaded into microfluidic droplets and standard 96-well plates. Consistent with both prior studies and well-plate experiments disclosed herein, B. thetaiotaomicron ATCC 29148 grew in droplets on pullulan and levan, but not on lamanarin or a no carbohydrate control (FIG. 4). […] Using 96-well plate experiments as a reference (FIG. 12B, FIG. 18), the accuracy of the MicDrop prebiotic assay was determined to be 87% (Table 8). […]

O=C(O)[C@H]1O[C@@H](Oc2ccc([N+](=O)[O-])cc2)[C@H](O)[C@@H](O)[C@@H]1O [PNPG, 4-Nitrophenyl-Beta-D-glucuronic acid, reference compound]
bacterial growth on substrate (gut bacteria): bacterial growth

O=C[C@H](O)[C@@H](O)[C@H](O)[C@H](O)C(=O)O [glucuronic acid]
bacterial growth on substrate (gut bacteria): bacterial growth

lamanarin
growth of the isolate in droplets compared to control defined medium without carbon source [1]: the same or slightly worse

levan
growth of the isolate in droplets compared to control defined medium without carbon source [1]: greater growth
growth in droplets on carbohydrate (growth / no growth) [1]: grew

pullulan [Pullalan]
growth of the isolate in droplets compared to control defined medium without carbon source [1]: greater growth
growth in droplets on carbohydrate (growth / no growth) [1]: grew
